From patent publication US10308631B2, “Selective anti-cancer compounds” (NATIONAL UNIVERSITY OF SINGAPORE, priority 2015, dated 2019)

What was measured:
[1] = tested on: HeLa cells (mitotic spindles, β-tubulin/DAPI); test: Immunofluorescence analysis of mitotic spindles and chromosomes; assay type: cell-based, human; settings: 6 h, Compound 1 2.5 μM, CQ 15 or 25 μM
Procedure: HeLa cells, treated with Compound 1 (a131) at 2.5 μM (FIG. 3b), chloroquine (CQ) at 15 μM (FIG. 3c) or 25 μM (FIG. 3d), or DMSO (FIG. 3a) for 6 h, were fixed in methanol and subjected to immunofluorescence analysis using antibodies against β-tubulin to visualize proper formation of mitotic spindles. The condensed mitotic chromosomes were visualized by counterstaining with DAPI. Only Compound 1 (a131)-treated HeLa cells arrested in mitosis with misaligned chromosomes and disorganized spindles (FIG. 3b). The bars in FIGS. 3a-d represent 5 μm in length.
To confirm the inhibitory mitotic progression ability, HeLa cervical cancer cells as cultured above were treated with Compound 1 (2.5 μM, DMSO), CQ (15 or 25 μM, DMSO) or DMSO for 6 h. The treated cells were fixed in methanol and subjected to immunofluorescence analysis using antibodies against β-tubulin (Abcam, Cat#ab52623) to visualize proper formation of mitotic spindles. The condensed mitotic chromosomes were visualized by counterstaining with DAPI.

[2] = tested on: HCT-15 human colon adenocarcinoma xenografts; test: Tumour xenograft efficacy, tumour volume; assay type: in vivo, mice; settings: HCT15 xenografts; intravenously 40 mg/kg, 3 times every 4 days; vs vehicle
Procedure: A, B: is a graphical representation of tumour volumes estimated periodically as indicated. Mice bearing established tumour xenografts using HCT15 or MDA-MB-231 cells were treated orally (PO) or intraperitoneally (IP) twice a day with the indicated doses of Compound 1 or Compound 16 for 12 or 15 days. Paclitaxel (PTX) was given intravenously at dose of 40 mg/kg, 3 times every 4 days. Error bars show ±S.D. from mean tumour volumes obtained from 6 mice. Student's t-test was performed to determine the statistical significance (*=p<0.005). C: is a bar graph showing quantification of cells (n>100 per condition) with misaligned chromosomes and multipolar mitotic-spindles. […] tumour sections treated with Compound 16 (80 mg/kg) or control vehicle for 12 days were stained with anti-β-tubulin antibodies and DAPI. The percentage of cells with misaligned chromosomes and multipolar mitotic-spindles was quantified and plotted with mean values±S.D.
Mice bearing established tumor xenografts using HCT15 or MDA-MB-231 cells were treated orally (PO) or intraperitoneally (IP) twice a day with the indicated doses of Compound 1 or its derivative Compound 16 (b5) for 12 or 15 days, respectively. For comparison, paclitaxel (PTX) was given intravenously to mice bearing established tumour xenografts using HCT15 at dose of 40 mg/kg, 3 times every 4 days.

[3] = tested on: non-transformed normal and oncogene-transformed human fibroblast BJ cell lines; test: Chemoprotection from paclitaxel, Annexin V/PI FACS; assay type: cell-based; settings: paclitaxel treatment alone, 50 nM
Procedure: Normal and transformed BJ cells were treated with Compound 25 at 5 μM. 48 h after treatment, cells were further treated with (A) 50 nM paclitaxel (PTX) or (B) etoposide, at the concentrations shown, for additional 48 or 72 h, respectively. A: cells were collected, stained with Annexin V together with propidium iodide (PI) and subjected to FACS analysis. […] Student's t-test was performed to determine the statistical significance (***=P<0.0001, **=P<0.001, *=P<0.05, n.s.=no significance).
The chemoprotective efficacies of the Compounds in Group 2 were further evaluated by measuring their ability to protect non-transformed normal cells, but not cancer and oncogene-transformed counterparts, from the most well-known as well as clinically-relevant chemotherapeutic agents, paclitaxel and etoposide. To determine this, isogenic non-transformed normal and oncogene-transformed human fibroblast BJ cell lines, cultured in DMEM supplemented with 10% FBS, were pre-treated with Compound 25 (a166—Group 2) at 5 μM. 48 h after treatment, cells were further treated with paclitaxel (PTX; FIG. 13A) or etoposide (FIG. 13B) for an additional 72 h. […] For etoposide, cell viability was determined using MTT assay and plotted in comparison with DMSO control vehicle with mean values±S.D. (n=4).

Row | SMILES | mitotic arrest, chromosome alignment and mitotic spindles [1] | anti-tumour effect (tumour volume) [2] | selectivity of cell death for oncogene-transformed BJ cells [3]
1 | CCN(CC)CCCC(C)Nc1ccnc2cc(Cl)ccc12 (stereo not drawn) [CQ, chloroquine, reference compound] | no such effects were seen | – | –
2 | CC(=O)O[C@H]1C(=O)[C@@]2(C)[C@H]([C@H](OC(=O)c3ccccc3)[C@]3(O)C[C@H](OC(=O)[C@H](O)[C@@H](NC(=O)c4ccccc4)c4ccccc4)C(C)=C1C3(C)C)[C@]1(OC(C)=O)CO[C@@H]1C[C@@H]2O [paclitaxel, reference compound] | – | did not show significant anti-tumour effects | showed a minimal selectivity for oncogene-transformed BJ cells
